Experiments:
[1] = 25° C., 0.01M; cited from earlier work
[2] = Effect of pH on skin permeability (tritiated water permeation, Franz cells); format: in vitro ADME, human; details: 70 h passive permeation

| Compound | Log β (stability constant) [1] | average radioactive count in the receiver compartment ([2]; pH 2) [DPM/mL] | average radioactive count in the receiver compartment ([2]; pH 5) [DPM/mL] |
| --- | --- | --- | --- |
| O=C([O-])CC(O)(CC(=O)[O-])C(=O)[O-].[Ga+3] [Ga citrate] | 10.02 | – | – |
| [OH][Ga+][OH] [Ga(OH)2^+] | −6.6 | – | – |
| [Ga+3].[OH-].[OH-].[OH-] [Ga(OH)3] | −11.0 | – | – |
| [OH][Ga-]([OH])([OH])[OH] [Ga(OH)4^−] | −15.66 | – | – |
| [OH][Ga+2] [GaOH^++] | −2.9 | – | – |
| [3H]O[3H] [tritiated water, Tritiated water] | – | 55860±25106 | 60557±20376 |

Source: patent publication US20130072899A1, “Pharmaceutical Formulations for Iontophoretic Delivery of Gallium” (Nitric BloTherapeutics, Inc., priority 2008, published 2013)
